According to PubChem BioAssay (NCI):
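Briefly, cells in 96-well plates were exposed to five compound concentrations for 48 h, and endpoints were estimated by linear interpolation. GI50: concentration for 50% inhibition of growth. Definition used: TGI = concentration required for complete inhibition of growth.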

What was measured:
Assay in all cases: NCI tumour cell line growth inhibition, 48 h
[1] = system: LOX IMVI melanoma
[2] = system: RPMI-8226 leukemia
[3] = system: MOLT-4 leukemia
[4] = system: SNB-75 CNS
[5] = system: ACHN renal
[6] = system: NCI-H522 lung
[7] = system: SR leukemia
[8] = system: NCI-H460 lung
[9] = system: HT29 colon
[10] = system: PC-3 prostate
[11] = system: DU-145 prostate
[12] = system: MCF7 breast
[13] = system: SF-539 CNS
[14] = system: SNB-19 CNS
[15] = system: HL-60(TB) leukemia
[16] = system: HCT-15 colon
[17] = system: UACC-62 melanoma
[18] = system: U251 CNS
[19] = system: COLO 205 colon
[20] = system: HS 578T breast
[21] = system: RXF 393 renal
[22] = system: SF-268 CNS
[23] = system: OVCAR-8 ovarian
[24] = system: K-562 leukemia
[25] = system: HCC-2998 colon
[26] = system: HOP-92 NSCLC
[27] = system: UO-31 renal
[28] = system: SK-OV-3 ovarian
[29] = system: A549 NSCLC

SMILES: c1ccc(-c2nc([P+](c3ccccc3)(c3ccccc3)c3ccccc3)c(N3CCOCC3)o2)cc1
- GI50 [1]: 1490 nM
- TGI [1]: 3900 nM
- GI50 [2]: 295 nM
- TGI [2]: 1430 nM
- GI50 [3]: 2260 nM
- TGI [3]: 14800 nM
- GI50 [4]: 393 nM
- TGI [4]: 2730 nM
- GI50 [5]: 3070 nM
- TGI [5]: 12700 nM
- GI50 [6]: 665 nM
- TGI [6]: 5430 nM
- GI50 [7]: 655 nM
- TGI [7]: 20000 nM
- GI50 [8]: 2480 nM
- TGI [8]: 12000 nM
- GI50 [9]: 715 nM
- TGI [9]: > 33300 nM
- GI50 [10]: 450 nM
- TGI [10]: 5770 nM
- GI50 [11]: 1180 nM
- TGI [11]: 12900 nM
- GI50 [12]: 388 nM
- TGI [12]: 4150 nM
- GI50 [13]: 2190 nM
- TGI [13]: 12200 nM
- GI50 [14]: 483 nM
- TGI [14]: 15000 nM
- GI50 [15]: 322 nM
- TGI [15]: 1600 nM
- GI50 [16]: 9310 nM
- TGI [16]: 58800 nM
- GI50 [17]: 589 nM
- TGI [17]: 2940 nM
- GI50 [18]: 483 nM
- TGI [18]: 11900 nM
- GI50 [19]: 477 nM
- TGI [19]: 2070 nM
- GI50 [20]: 1620 nM
- TGI [20]: 11700 nM
- GI50 [21]: 1590 nM
- TGI [21]: 7420 nM
- GI50 [22]: 844 nM
- TGI [22]: 11100 nM
- GI50 [23]: 1180 nM
- TGI [23]: 10200 nM
- GI50 [24]: 439 nM
- TGI [24]: > 74800 nM
- GI50 [25]: 1040 nM
- TGI [25]: 12400 nM
- GI50 [26]: 446 nM
- TGI [26]: 3200 nM
- GI50 [27]: 6370 nM
- TGI [27]: 25700 nM
- GI50 [28]: 1630 nM
- TGI [28]: 6340 nM
- GI50 [29]: 2830 nM
- TGI [29]: 48600 nM
